Patent US6558694B2, “Zinc chloride unit dose packaging, applicator, and method of use in treating cancer and other skin diseases” (priority 1999, dated 2003)

Key:
[1] = Mixing compatibility of additives with zinc chloride fixative paste; format: physicochemical; conditions: for mixing with the zinc chloride fixative paste: additive in low concentration
Protocol: Podophyllin is a natural plant extract from the dried roots of either Podophyllum peltatum or P. emodi. It is an antimitotic agent used for many years in the treatment of human warts. (Fitzpatrick T B, et al. Dermatology in General Medicine, McGraw-Hill 1999, p. 2724.) Podophyllin is added at a 0.01% concentration, although a wide range of concentrations may be acceptable from 0.001% to 90% or greater, depending on the zinc chloride formulation employed.

[2] = inadvertent extravasation; far greater concentration and dosage than in the paste; tenderness, erythema, skin discoloration, swelling; cited from earlier work
HIV = conditions: cited from earlier work

| mixing with the zinc chloride fixative paste [1] | paste consistency and viscosity after addition ([1]; paclitaxel in low concentration) | SMILES | local skin reactions [2] | inactivation of HIV (HIV) |
| --- | --- | --- | --- | --- |
| completely compatible and mix fully |  | O=c1[nH]cc(F)c(=O)[nH]1 [fluorouracil] |  |  |
| mixes completely and fully | remains unchanged | CC(=O)O[C@H]1C(=O)[C@@]2(C)[C@H]([C@H](OC(=O)c3ccccc3)[C@]3(O)C[C@H](OC(=O)[C@H](O)[C@@H](NC(=O)c4ccccc4)c4ccccc4)C(C)=C1C3(C)C)[C@]1(OC(C)=O)CO[C@@H]1C[C@@H]2O [paclitaxel] | mild |  |
| completely compatible and mix fully |  | NC(N)=O [urea] |  |  |
|  |  | [Cl-].[Cl-].[Zn+2] [zinc chloride] |  | inactivated |
